Assay results taken from patent US20150336996A1, “MANGANESE-BASED MAGNETIC RESONANCE CONTRAST AGENTS” (THE GENERAL HOSPITAL CORPORATION, priority 2013, published 2015).

Columns and labels:
Format in all cases: physicochemical
[1] = T1 relaxivity (r1) by inversion recovery on Bruker mq60 Minispec, 1.4 T, 37° C., TRIS buffer pH 7.4; settings: for r1 (relaxivity of manganese complexes): pH 7.4, 37° C., 1.4 Tesla
Description: (§1) Liquid chromatography-electrospray mass spectrometry (LC-MS) was performed using an Agilent 1100 Series apparatus with an LC/MSD trap and Daly conversion dynode detector with UV detection at 220, 254 and 280 nm. The methods used on this system are as follows: (a) Luna C18 column (100×2 mm); eluent A: H2O/0.1% formic acid, B: MeCN/0.1% formic acid; gradient: 5% B to 95% B over 9 minutes; flow rate 0.8 mL/min (used for characterization of organic compounds), and (b) Kromasil C18 column (250×4.6 mm); eluent C: 95% MeCN/5% 10 mM ammonium acetate, D: 10 mM ammonium acetate; gradient 5% C to 8% C over 14 minutes; flow rate 0.8 ml/min (used for characterization of manganese complexes). Reversed-phase semipreparative purification was performed on a Rainin Dynamax HPLC system with UV detection at 254 nm using a Polaris C18 column. The method used for purification is as follows: The mobile phase A was 50 mM ammonium acetate buffer, pH 6.5 and mobile phase B was a mixture of 5% 50 mM ammonium acetate buffer, pH 6.5/95% MeCN. Starting from 5% B, the fraction of B increased to 8% over 23 minutes. The column was washed with 100% B for 2 minutes and then ramped to 5% B. The system was re-equilibrated at 5% B for 3 minutes. Relaxivity measurements were performed on a Bruker mq60 Minispec at 1.4 T and 37° C. Manganese concentrations were determined using an Agilent 7500a ICP-MS system. All samples were diluted with 0.1% Triton X-100 in 5% nitric acid containing 20 ppb of Lu (as internal standard). The ratio of Mn (54.94)/Lu(174.97) was used to quantify the manganese concentration. A linear calibration curve ranging from 0.1 ppb to 200 ppb was generated daily for the quantification. UV-Vis spectra were recorded on a SpectraMax M2 spectrophotometer using quartz cuvette with a 1 cm path length. Cyclic voltammetry of Mn^IIHBET, Mn^IIEDTA and Mn^IIIHBET was recorded using a Nuvant EZstat pro potentiostat in TRIS buffer (pH=7.4), containing 0.5M KNO3 as supporting electrolyte, at 100 mVs-1 scan rate. Glassy carbon was used as the working electrode, Ag/AgCl served as the reference electrode and Pt wire was used as the auxiliary electrode. The K4FeCN6/K3FeCN6 couple was used as the internal standard.
T1 was measured with an inversion recovery pulse sequence taking 10 inversion times. Relaxivity was determined from the slope of a plot of 1/T1 vs. concentration of in TRIS buffer, pH=7.4 at 37° C. The concentration of manganese in each stock solution was determined using ICP-MS.
All chemicals and solvents were purchased commercially and used without further purification. NMR spectra were recorded on either a 500 MHz or 400 MHz Varian spectrometers. Chemical shifts are reported in δ (ppm). For ^1H and ^13C NMR spectra, the residual solvent peaks were used as internal reference, except for the ^13C NMR of the ligand where tertiary-butanol was used as the internal reference. Liquid chromatography-electrospray mass spectrometry (LC-MS) was performed using an Agilent 1100 Series apparatus with an LC/MSD trap and Daly conversion dynode detector with UV detection at 220, 254 and 280 nm. The methods used on this system are as follows: (a) Luna C18 column (100×2 mm); eluent A: H2O/0.1% formic acid, B: MeCN/0.1% formic acid; gradient: 5% B to 95% B over 9 minutes; flow rate 0.8 mL/min (used for characterization of organic compounds), and (b) Kromasil C18 column (250×4.6 mm); eluent C: 95% MeCN/5% 10 mM ammonium acetate, D: 10 mM ammonium acetate; gradient 5% C to 8% C over 14 minutes; flow rate 0.8 ml/min (used for characterization of manganese complexes). Reversed-phase semipreparative purification was performed on the Rainin Dynamax HPLC system with UV detection at 254 nm using a Polaris C18 column. The method used for purification is as follows: The mobile phase A was 50 mM ammonium acetate buffer, pH 6.5 and mobile phase B was a mixture of 5% 50 mM ammonium acetate buffer, pH 6.5/95% MeCN. Starting from 5% B, the fraction of B increased to 8% over 23 minutes. […]

[2] = UV spectrum as a function of pH (phenol deprotonation pKa); settings: fit of UV absorbance vs pH
Description: To probe the speciation of the manganese complexes in solution, pH titrations of 1:1 Mn^2+:ligand were performed using a 1 N NaOH under N2 atmosphere (FIG. 21).
To determine the species that exists in these two pH ranges the UV spectrum as a function of pH was monitored (see FIGS. 22-24).

[3] = Cyclic voltammetry of the Mn(III)/Mn(II) redox couple; settings: for Half-cell potential vs. normal hydrogen electrode (NHE): pH 7.4, vs. NHE
Description: Potentials are vs. K4Fe(CN)6/K3Fe(CN)6; and in (b), a Cottrell plot of the Mn^2+/Mn^3+ couple—ia, (decreasing line) and ic (increasing line) vs. √v, where v=scan rate.
as §1

[4] = Kinetics of reduction of Mn^III-HBET by glutathione; settings: 37° C., pH 7.4; first-order in both [GSH] and [Mn^III-HBET]
Description: A series of kinetic experiments were conducted at 37° C. (pH 7.4) to determine the empirical rate law for the reduction of Mn^III-HBET by glutathione. […] This feature allowed us to easily monitor the reduction of Mn^III-HBET over time. We measured initial reaction rates at three different glutathione concentrations (5 mM, 10 mM and 20 mM). For each glutathione concentration, the reaction was performed at four different initial concentrations of M^III-HBET (0.3 mM, 0.4 mM, 0.5 mM and 0.6 mM). Based on these experiments, we determined that the reaction was first-order in both [GSH] and [Mn^III-HBET] with an overall second-order rate constant of (3.8±0.3)×10^−1 M^−1 s^−1.
This series of kinetic experiments were conducted at 37° C. (pH 7.4) to determine the empirical rate law for the reduction of Mn^III-HBET by glutathione. […] Initial reaction rates were measured at a three different glutathione concentrations (5 mM, 10 mM and 20 mM). […]
Here, the observed rate constant (kobs) is simply the product of the actual rate constant (k) and [GSH], t is time, and the subscripts ‘t’ and ‘o’ refer to the concentration at time T or the initial concentration, respectively. […] Based on these experiments, we determined that the reaction was first-order in both [GSH] and [Mn^III-HBET] with an overall second-order rate constant of (3.8±0.3)×10^−1 M^−1 s^−1.

[5] = Stability of manganese complexes in buffers
Description: The stability of the manganese complexes were measured in different buffers using concentrations similar to those found in the blood plasma (1 mM phosphate buffer, 25 mM sodium bicarbonate buffer and 0.1 mM citrate buffer). A solution, 0.5 mM, of the manganese complex was incubated in the respective buffers at 37° C. (pH=7.4) and the species were then quantified on the LC-MS using the method as described earlier. The manganese complexes (0.5 mM) were also treated with EDTA (0.5 mM) in TRIS buffer (pH=7.4) and incubated at 37° C. for 1 hour. The species were then quantified on the LC-MS using the method as described earlier.

[6] = Relaxivity at different field strengths in pH 7.4 HEPES buffer; settings: 37° C.
Description: The relaxivities of the compounds for Formulas (XI) and (XII) were determined at different field strengths at 37° C. in pH 7.4 HEPES buffer. The relaxivity was obtained from the slope of a plot of 1/T1 vs. [Mn] for different Mn concentrations. Since Formula (XI) contains 6 Mn per molecule, the ionic (per Mn) and molecular (per molecule) relaxivities are given below.

[7] = Stability of solutions at room temperature
Description: 40 binds Mn^II in a 1:1 ratio. This complex was prepared and characterized in situ. Mn^II was carefully titrated to 40 and Mn:40 stoichiometry was monitored by LC-MS or T2-relaxometry as describe above. […] 433.1.

O=C([O-])CN(CC(=O)[O-])C1CCCCC1N(CC(=O)[O-])Cc1ccccc1[O-].[Mn+2].[Na+].[Na+] (racemic) [Compound 20, Na2[Mn^IIcycHBET]]
r1 (relaxivity of manganese complexes) [1]: 3.26 mM⁻¹ s⁻¹ | pKa for ionization of the phenol [2]: 7.95

O=C([O-])CN(CC(=O)[O-])C1CCCCC1N(CC(=O)[O-])Cc1ccccc1[O-].[Mn+3].[Na+] (racemic) [Compound 21, Na[Mn^IIIcycHBET]]
r1 (relaxivity of manganese complexes) [1]: 1.56 mM⁻¹ s⁻¹ | Half-cell potential vs. normal hydrogen electrode (NHE) [3]: 365 mV

O=C([O-])CN(CC(=O)[O-])C1CCCCC1N(CC(=O)[O-])Cc1cc([N+](=O)[O-])ccc1[O-].[Mn+2].[Na+].[Na+] (racemic) [Compound 30, Na2[Mn^IIcycHBET-NO2)]]
r1 (relaxivity of manganese complexes) [1]: 2.30 mM⁻¹ s⁻¹

O=C([O-])CN(CC(=O)[O-])C1CCCCC1N(CC(=O)[O-])Cc1cc([N+](=O)[O-])ccc1[O-].[Mn+3].[Na+] (racemic) [Compound 31, Na[Mn^IIIcycHBET-NO2]]
Half-cell potential vs. normal hydrogen electrode (NHE) [3]: 488 mV

O=C([O-])CN(CCN(CC(=O)[O-])Cc1ccccc1[O-])CC(=O)[O-].[Mn+3].[Na+] [Compound 5, Na[Mn^IIIHBET]]
T1 relaxivities ([1]; 1.4 T, Tris buffered saline pH 7.4, 37° C.): 1.05 mM⁻¹ s⁻¹ | r1 (relaxivity of manganese complexes) [1]: 1.05 mM⁻¹ s⁻¹ | overall second-order rate constant of reduction by glutathione [4]: (3.8±0.3)×10^−1 M^−1 s^−1 | stability in phosphate and carbonate buffers [5]: stable

COc1ccc([O-])c(CN(CCN(CC(=O)[O-])CC(=O)[O-])CC(=O)[O-])c1.[Mn+2].[Na+].[Na+] [Compound 9, Na2[Mn^IIHBET-OMe]]
r1 (relaxivity of manganese complexes) [1]: 3.11 mM⁻¹ s⁻¹ | Half-cell potential vs. normal hydrogen electrode (NHE) [3]: 344 mV | pKa for ionization of the phenol [2]: 7.91

O=C([O-])CN(CCN(CC(=O)[O-])Cc1cc([N+](=O)[O-])ccc1[O-])CC(=O)[O-].[Mn+2].[Na+].[Na+] [Compound 13, Na2[Mn^IIHBET-NO2]]
r1 (relaxivity of manganese complexes) [1]: 2.28 mM⁻¹ s⁻¹ | pKa for ionization of the phenol [2]: 4.84

O=C([O-])CN(CCN(CC(=O)[O-])Cc1cc([N+](=O)[O-])ccc1[O-])CC(=O)[O-].[Mn+3].[Na+] [Compound 14, Na[Mn^IIIHBET-NO2]]
r1 (relaxivity of manganese complexes) [1]: 0.34 mM⁻¹ s⁻¹ | Half-cell potential vs. normal hydrogen electrode (NHE) [3]: 476 mV

O=C([O-])CN(CCN(CC(=O)[O-])Cc1ccccc1[O-])Cc1ccccc1[O-].[Mn+3] [Mn^III-HBED, reference compound]
half-cell potentials (Mn^II/Mn^III) ([3]; irreversible oxidation / quasi-reversible reduction peaks, TRIS buffer pH 7.4): 0.016 V

Mn6[N3P3-(TyOH-EDTA)6] [Compound 55]
Relaxivity r1 at 0.47T (per Mn) ([6]; 0.47T, ionic (per Mn)): 9.07 mM⁻¹ s⁻¹ | Relaxivity r1 at 0.47T per molecule ([6]; 0.47T, molecular (per molecule, 6 Mn)): 54.4 mM⁻¹ s⁻¹ | Relaxivity r1 at 1.4T (per Mn) ([6]; 1.4T, ionic (per Mn)): 9.28 mM⁻¹ s⁻¹ | Relaxivity r1 at 1.4T per molecule ([6]; 1.4T, molecular (per molecule, 6 Mn)): 55.7 mM⁻¹ s⁻¹ | Relaxivity r1 at 4.7T (per Mn) ([6]; 4.7T, ionic (per Mn)): 6.54 mM⁻¹ s⁻¹ | Relaxivity r1 at 4.7T per molecule ([6]; 4.7T, molecular (per molecule, 6 Mn)): 39.2 mM⁻¹ s⁻¹ | Relaxivity r1 at 9.4T (per Mn) ([6]; 9.4T, ionic (per Mn)): 4.94 mM⁻¹ s⁻¹ | Relaxivity r1 at 9.4T per molecule ([6]; 9.4T, molecular (per molecule, 6 Mn)): 29.6 mM⁻¹ s⁻¹ | Relaxivity r1 at 11.7T (per Mn) ([6]; 11.7T, ionic (per Mn)): 3.57 mM⁻¹ s⁻¹ | Relaxivity r1 at 11.7T per molecule ([6]; 11.7T, molecular (per molecule, 6 Mn)): 21.4 mM⁻¹ s⁻¹

Na[Mn(TyOH-EDTA)] [Compound 52]
Relaxivity r1 at 0.47T (per Mn) ([6]; 0.47T, ionic (per Mn)): 3.60 mM⁻¹ s⁻¹ | Relaxivity r1 at 1.4T (per Mn) ([6]; 1.4T, ionic (per Mn)): 2.80 mM⁻¹ s⁻¹ | Relaxivity r1 at 9.4T (per Mn) ([6]; 9.4T, ionic (per Mn)): 3.65 mM⁻¹ s⁻¹ | Relaxivity r1 at 11.7T (per Mn) ([6]; 11.7T, ionic (per Mn)): 3.05 mM⁻¹ s⁻¹

[Mn(CyP3A)] [Compound 41]
Relaxivities r1 at 1.41T ([1]; 1.41T, 37° C., pH 7.4 Tris buffer): 2.50 mM⁻¹ s⁻¹ | stability of solutions [7]: indefinitely stable
